Source: US4233303A, “Xanthine derivatives” (priority 1977, dated 1980)
Entries after “also recorded” stand apart in the source; their conditions may differ. Where two headings read alike, the source gives them in different places.

Key:
[1] = test system: actively sensitized rat (anaphylactic bronchospasm); experiment: Active lung anaphylaxis in the rat (increase in intratracheal pressure after ovalbumin); assay type: in vivo, Sprague Dawley (printed "Spargue Dawley"); conditions: for Increase in intratracheal pressure (+ΔP): 1 min before ovalbumin, mean ± S.E.M.; for ED50: Rattus norvegicus, iv; for doses needed for protective effect / protective effect against anaphylactic bronchospasm (words, conclusion): actively sensitized rat; for protective effect against anaphylactic bronchospasm (words, conclusion): theophylline 0.010-2.5 mg/kg, disodiumcromoglicate 0.1-5.0 mg/kg; for concentrations showing inhibition of the anaphylactic bronchospasm / effect on the increase of the intratracheal pressure / maximum inhibition of the anaphylactic bronchospasm: 1 minute before ovalbumin
Description: The antianaphylactic effect was tested on actively sensitized laboratory animals.
The active sensitization of the animals was achieved by injecting ovalbumin, a protein. This administration makes the animals hypersensitive to subsequent challenge of ovalbumin with bronchoconstriction as a consequence. The antianaphylactic effect of the test compounds was tested in vivo by exposing the actively sensitized animals to ovalbumin and measuring the protective effect of test substance on the intratracheal pressure.
Rats, Spargue Dawley, 250 g, were sensibilized by 1.0 mg ovalbumin (Sigma) and 200 mg Al(OH)3 gel suspended in 1.0 ml saline. This suspension was administered subcutaneously at 2 sites (0.5 ml/site) on the abdominal side. This procedure was done with the animals lightly anesthetized by Mebumal. 18-26 days later the animals were used in the provocation experiments
The animal was anesthetized by i.p. injection of Mebumal, 50 mg/kg i.p. The trachea was cannulated and the animals was ventilated by a pump (Braun). The frequency of respiration was about 80 beats/min. The intratracheal pressure was measured by a Statham pressure transducer (P23AC). The normal pressure variations were 0- cm H2 O.
To inhibit spontaneous respiration there was need for Curare 0.8 mg/kg i.v. Alongside with the respiratory measurements the heart rate and arterial blood pressure was measured by a Statham pressure transducer connected with a. carotis. The blood pressure, pulse rate and intratracheal pressure were registered by means of a Grass polygraph.
Bronochoconstriction was induced by 5HT, 4-5 injections in v. jugularis of a standard dose. After that a single dose of ovalbumin, 5 mg, was administered. Test compound was administered 1 min before the challenging dose of ovalbumin. Because of desensitization towards the antigen (ovalbumin) this could only be administered once in each animal.
Calculation of anaphylactic bronchoconstriction
The maximum increase of the intratracheal pressure caused by ovalbumin was measured and this was expressed as the percentage increase of the intratracheal pressure. Comparisons were made between a group of control animals not treated with test compound and groups of animals treated with different doses of test compound.
They were initially dissolved in 0.8 ml NaOH (0.5 M) and 9.2 ml saline. This stock solution of compound, 10 mg/ml, was diluted further with saline if necessary. […] The compound was dissolved in saline.

[2] = test system: basophil leucocytes and isolated lung tissue; conditions: cited from earlier work
[3] = read-out: ED 50 values (50% protection against the anaphylactic bronchospasm), i.v., extrapolated
[4] = read-out: Extrapolated intravenous dose for 50% protection (ED 50), i.v., Table VIII

| Structure (SMILES) | Increase in intratracheal pressure (+ΔP) ([1]; 0.010 mg/kg i.v.) | Increase in intratracheal pressure (+ΔP) ([1]; 0.100 mg/kg i.v.) | Increase in intratracheal pressure (+ΔP) ([1]; 0.500 mg/kg i.v.) | ED50 [1, 3] | ED50 [1, 4] | doses needed for protective effect ([1]; i.v.) | protective effect against anaphylactic bronchospasm (words, conclusion) [1] | concentrations showing inhibition of the anaphylactic bronchospasm ([1]; i.v.) | effect on the increase of the intratracheal pressure ([1]; i.v.) | maximum inhibition of the anaphylactic bronchospasm ([1]; i.v.) | Increase in intratracheal pressure (+ΔP) ([1]; 0.250 mg/kg i.v.) | Increase in intratracheal pressure (+ΔP) ([1]; 1.00 mg/kg i.v.) | Increase in intratracheal pressure (+ΔP) ([1]; 0.025 mg/kg i.v.) | Increase in intratracheal pressure (+ΔP) ([1]; 0.05 mg/kg i.v.) | ED 50 values (50% protection against the anaphylactic bronchospasm) ([1]; i.v., extrapolated) | Increase in intratracheal pressure (+ΔP) ([1]; 5.0 mg/kg i.v.) | ED 50 result in words (dose-response shape) ([1]; i.v.) | inhibition of the anaphylactic release of histamine [2] |
| --- | --- | --- | --- | --- | --- | --- | --- | --- | --- | --- | --- | --- | --- | --- | --- | --- | --- | --- |
| Cc1nc2c([nH]1)c(=O)n(C)c(=O)n2-c1ccccc1 [D 4026, 3,7-dihydro-1,8-dimethyl-3-phenyl-1H-purine-2,6-dione] | 33 ± 6% | 7 ± 2% | 9 ± 5% | < 0.1 mg/kg | 0.016 mg/kg | 0.01 to 1.0 mg/kg | show protective effect | 0.01 to 0.10 mg/kg | diminished the increase of the intratracheal pressure | about 87% |  |  |  |  |  |  |  |  |
| Cc1nc2c([nH]1)c(=O)n(C)c(=O)n2CC(C)O (stereo not drawn) [D 4086, 3,7-dihydro-1,8-dimethyl-3-(2-hydroxypropyl)-1H-purine-2,6-dione] |  | 26 ± 6% | 2 ± 1% | 0.1 to 0.27 mg/kg | 0.12 mg/kg | 0.01 to 1.0 mg/kg | show protective effect |  | diminished the increase of the intratracheal pressure |  | 14 ± 3% |  |  |  |  |  |  |  |
| CCCn1c(=O)c2[nH]c(C)nc2n(CC(C)O)c1=O (stereo not drawn) [D 4122, 3,7-dihydro-3-(2-hydroxypropyl)-8-methyl-1-propyl-1H-purine-2,6-dione] | 34 ± 4% | 23 ± 5% |  | < 0.1 mg/kg | 0.01 mg/kg | 0.01 to 1.0 mg/kg | show protective effect | 0.01 to 1.00 mg/kg | diminished the increase of the intratracheal pressure | 79% |  | 18 ± 4% |  |  |  |  |  |  |
| Cc1nc2c([nH]1)c(=O)n(C)c(=O)n2C1CCCC1 [D 4136, 3-cyclopentyl-3,7-dihydro-1,8-dimethyl-1H-purine-2,6-dione] |  | 55% |  |  | 0.13 mg/kg | 0.01 to 1.0 mg/kg | show protective effect |  | diminished the increase of the intratracheal pressure |  |  | 27 ± 4% | 36 ± 4% |  |  |  |  |  |
| CCn1c(=O)c2[nH]c(C)nc2n(CC2CCCCC2)c1=O [D 4139, 3,7-dihydro-1-ethyl-8-methyl-3-cyclohexylmethyl-1H-purine-2,6-dione] | 74 ± 22% | 35 ± 9% |  | < 0.1 mg/kg | 0.04 mg/kg | 0.01 to 1.0 mg/kg | show protective effect | 0.01 to 0.10 mg/kg | diminished the increase of the intratracheal pressure | 68% |  |  |  | 50 ± 26% | 0.10 to 0.27 mg/kg |  |  |  |
| O=C(O)c1cc(=O)c2c(OCC(O)COc3cccc4oc(C(=O)O)cc(=O)c34)cccc2o1 [disodiumcromoglicate, reference compound] |  | 46 ± 7% |  |  |  |  |  |  |  |  |  | 22 ± 8% |  |  |  | 46 ± 6% | bell shaped curves which made it impossible to calculate ED 50 values; also recorded: bell-shaped curve |  |
| Cn1c(=O)c2[nH]cnc2n(C)c1=O [theophylline] |  |  |  |  |  |  |  |  |  |  |  |  |  |  |  |  |  | capable of inhibiting the anaphylactic release of histamine |
